This test relates to axonal mitochondrial transport in DRG neurons. Put plainly: FRAP of Mito-GFP in distal axons of DRG neurons. The class given is cell-based, rat. How it is done: MAG or Aggrecan exposures were performed as bath application or on coated substrates. For bath application, dissociated DRGs were cultured for 48 h and treated with 25 μg/ml of MAG-Fc (R&D Systems; 538-MG), 25 μg/ml Fc control (R&D Systems; 110-HG), or 10 μg/ml of Aggrecan (Sigma-Aldrich; A1960) for 4 h. Cultures were pretreated with either Ca^2+ chelator BAPTA-AM (3 μM; Sigma-Aldrich; A1076), ROCK inhibitor Y27632 (10 μM; Sigma-Aldrich; SCM075), HDAC6 inhibitor TubA (10 μM; R&D Systems; 6270), Thapsigargin (1 μM; Sigma-Aldrich; T9033), Rho Activator II (1 μg/ml; Cytoskeleton; CNO3), or equivalent volume DMSO 30 min before MAG-Fc, Aggrecan, or controls. For substrate-bound experiments, adult DRGs were cultured on glass bottom dishes (Greiner) that were coated with 25 μg/ml Aggrecan in addition to the laminin/poly-D-lysine substrate.
Mito-KR- and Mito-GFP-expressing DRG neurons were used for FRAP analyses at 48-72 h after transfection. To evaluate mitochondrial motility in Mito-KR-expressing neurons, Mito-KR signals were photobleached using continual exposure to an argon laser set at 594 nm for 30 s (100% laser power) The bleached ROI was then monitored for recovery using an argon laser set at 580 nm every 10 s over 16 min (13% laser power). For FRAP analyses with Mito-GFP, GFP signals were photobleached in a 50 μm ROI using an argon laser set at 488 nm every 10 s for 16 min (70% laser power). The same excitation was used for post-bleach imaging to assess recovery every 10 s for 16 min. For axon shaft FRAP experiments in Mito-GFP-expressing neurons, ROIs of ˜50 μm in length (without branches) were imaged >100 μm proximal to the growth cone. Prebleach, bleach, and post-bleach sequences were the same as for Mito-GFP above. In all cases, neurons were imaged over 40 s or more to acquire baseline Mito-KR or Mito-GFP signals before photobleaching using an argon laser (580 nm at 13% power for Mito-KR and 488 nm at 31% power for Mito-GFP).
Vesicle trafficking was quantified using differential ImageJ Difference Tracker Plug-in (Andrews et al., 2010). 50-80-μm long unbranched axon segments at approximately the mid-region between growth cone and cell body were analyzed. Kymographs were generated using ImageJ Kymograph Plug-in. For analyses of axon retraction in the CALI experiment, the distance from the distal tip of the growth cone in the pre-CALI image sequence was used as the baseline (t=1 min). The distance between the growth tip at end of the post-CALI sequence and the pre-CALI baseline was measured using LAS-X software. Movement of ≥0.5 μm toward the axon shaft was counted as retracted. Fluorescence emission of the Mito-KR post-CALI was analyzed using ImageJ. For normalizing intensities across FRAP image sets, fluorescence intensity at each time point was scaled using the LAS-X FRAP module so that the residual fluorescence signal at t=0 min (post-bleach) was set at 0 and the prebleach intensity was set at 100% for each bleached ROI. For axon shaft FRAP analyses, each 50-μm bleached ROI was divided into […], and the fluorescence intensity recovery was measured as described above. EMs at 1,900× and 4,800× magnification across the crosssectional surface of each sciatic nerve were used for in vivo analyses of mitochondrial content. A minimum of 75 unmyelinated axons was analyzed for each nerve. All unmyelinated axons from each analyzed image were included for quantitative studies. The total number of mitochondria was determined in each unmyelinated axon in the field and was divided by the total number of unmyelinated axons for all subjects. […] was determined by changes in JC-1 fluorescence. JC-1 exists either as a green fluorescent monomer at depolarized membrane potentials or as an orange-red fluorescent aggregate at hyperpolarized membrane potentials. […]

SMILES strings stand for the structures.

With `CN1CCc2c(c3ccccc3n2Cc2ccc(C(=O)NO)cc2)C1` [TubA, tubastatin], under “1 μM thapsigargin + 10 μM TubA”, the “Mito-GFP recovery for thapsigargin-treated cultures, Myc-Miro1K105Q-expressing neurons” value is “only a modest response to TubA treatment” and the “Mito-GFP recovery for thapsigargin-treated cultures, Myc-Miro1K629Q-expressing neurons” value was “significantly increased by TubA treatment”. Further, the “Mito-GFP recovery in DRGs transfected with WT, K40Q or K40A α-tubulin” value (10 μM TubA vs DMSO, 960 s after bleach) was “significantly increases Mito-GFP recovery in all three conditions”. Besides, the “mitochondrial transport with combined 10 μM TubA, 3 μM BAPTA-AM and ROCK inhibitor vs each alone” value (MAG-Fc, Mito-GFP FRAP) was “did not increase mitochondrial transport above the results seen”. In addition, the “effect on Rho activator-dependent decrease in mitochondrial transport” value (Rho-Activator + 10 μM TubA) is on record as “prevented by treatment with TubA”. Besides, the “effect on aggrecan-dependent decrease in Mito-GFP recovery” value (aggrecan 10 μg/ml, TubA 10 μM or Y27632 10 μM) is “prevented by treatment with TubA”. In addition, the “effect on MAG-Fc-dependent decrease in Mito-GFP recovery / mitochondrial transport” value (pretreatment: TubA 10 μM, Y27632 10 μM or BAPTA-AM 3 μM, 960 s after bleach) is reported as “prevented by TubA pretreatment”. Besides, where the note is “thapsigargin + 10 μM TubA”, the “effect on thapsigargin-dependent decrease in mitochondrial transport” value is given as “prevented by inhibition of HDAC6”.

Regarding `C/C=C(/C)C(=O)O[C@H]1C(C)=C2[C@H]([C@@H]1OC(=O)CCCCCCC)[C@@](C)(OC(C)=O)C[C@H](OC(=O)CCC)[C@@]1(O)[C@H]2OC(=O)[C@@]1(C)O` [thapsigargin], the “mitochondrial transport in DRG axons (Mito-GFP FRAP)” value (1 μM thapsigargin) is recorded as “similarly decreased mitochondrial transport”.

For the origin of these results see patent US20210330756A1, “Acetylation of Miro1” (University of South Carolina, priority 2020, published 2021).
